# Assay results as given in BindingDB's records for doi:10.1016/s0960-894x(01)00014-2 (Rensselaer Polytechnic Institute, 2001).
# Test: Displacement of [3H]naltrindole from Opioid receptor delta 1 of guinea pig brain membranes
row,SMILES,Ki
1,"C[C@H]1C2Cc3ccc(C(=O)Nc4ccccc4)cc3[C@@]1(C)CCN2CC1CC1 [3-cyclopropylmethyl-6,11-dimethyl-1,2,3,4,5,6-hexahydro-2,6-methano-benzo[d]azocine-8-carboxylic acid phenylamide]",1400 nM
2,"COC(=O)c1ccc2c(c1)[C@@]1(C)CCN(CC3CC3)C(C2)[C@@H]1C [(6S,11R)-3-Cyclopropylmethyl-6,11-dimethyl-1,2,3,4,5,6-hexahydro-2,6-methano-benzo[d]azocine-8-carboxylic acid methyl ester]",59 nM
3,"C[C@@H]1[C@@H]2Cc3ccc(C(N)=O)cc3[C@]1(C)CCN2CC1CC1 [(6S,11R)-3-Cyclopropylmethyl-6,11-dimethyl-1,2,3,4,5,6-hexahydro-2,6-methano-benzo[d]azocine-8-carboxylic acid amide]",570 nM
4,"C[C@H]1C2Cc3ccc(C(=O)N(C)C)cc3[C@@]1(C)CCN2CC1CC1 [(6S,11R)-3-Cyclopropylmethyl-6,11-dimethyl-1,2,3,4,5,6-hexahydro-2,6-methano-benzo[d]azocine-8-carboxylic acid dimethylamide]",> 35000 nM
5,"CNC(=O)c1ccc2c(c1)[C@@]1(C)CCN(CC3CC3)C(C2)[C@@H]1C [(6S,11R)-3-Cyclopropylmethyl-6,11-dimethyl-1,2,3,4,5,6-hexahydro-2,6-methano-benzo[d]azocine-8-carboxylic acid methylamide]",63 nM
6,"C[C@H]1C2Cc3ccc(C(=O)O)cc3[C@@]1(C)CCN2CC1CC1 [(6S,11R)-3-Cyclopropylmethyl-6,11-dimethyl-1,2,3,4,5,6-hexahydro-2,6-methano-benzo[d]azocine-8-carboxylic acid]",320 nM
7,"C[C@H]1[C@H]2Cc3ccc(C(N)=O)cc3[C@@]1(C)CCN2CC1CC1 [(6S,11R)-3-Cyclopropylmethyl-6,11-dimethyl-1,2,3,4,5,6-hexahydro-2,6-methano-benzo[d]azocine-8-carboxylic acid amide]",2.6 nM
8,"C[C@H]1C2Cc3ccc(C#N)cc3[C@@]1(C)CCN2CC1CC1 [(6S,11R)-3-Cyclopropylmethyl-6,11-dimethyl-1,2,3,4,5,6-hexahydro-2,6-methano-benzo[d]azocine-8-carbonitrile]",2700 nM
